For this experiment, the target named is CXCR4 (Homo sapiens, UniProt P61073). Description: FLIPR Tetra calcium mobilization assay. It is filed as cell-based. The settings on record: Human CD4+ T-Cells; CXCL12 added; FLIPR Calcium 4 assay kit. As to the method:
FLIPR Tetra Calcium Mobilization Assay The FLIPR Tetra calcium mobilization assay was performed by HD Bioscience. Briefly, The Molecular Devices, Fluorescent Imaging Plate Reader (FLIPR) Tetra was used in this assay. Excitation was achieved through unique placement of LED's within the instrument and emission captured by a CCD camera (EMCCD camera for FI and ICCD camera for luminescence). The homogeneous FLIPR Calcium 4 assay kit from Molecular Devices was used as the fluorescence reagent. Compounds were solubilized in 100% dimethyl sulfoxide (DMSO) to a concentration of 30 mM. A 10-point, 4-fold, intermediate dilution series was created in 100% DMSO with a top concentration of 4 mM and a bottom concentration of 0.01 μM. A near assay ready, direct dilution plate ([…]) was prepared from this compound dilution plate by transferring 1 μL of each dilution of compound in 100% DMSO to a Greiner #781201 plate. In addition, each […] plate also contained positive and negative control wells to define the upper and lower limits for the assay signal. The final assay concentration range of compound was 10 μM to 0.035 nM in 0.5% DMSO. Human CD^4+ T-Cells were isolated from human whole blood and subsequently activated and expanded using a CD3/CD28 expansion kit (Life Technologies). The cells were frozen in ThermoFisher-formulated Recovery Cell Culture Freezing Medium containing 10% Dimethyl sulfoxide (DMSO) and 10% Fetal Bovine Serum (FBS) (ThermoFisher Catalog No. 10100147). When used, cells were resuspended using room temperature 1× HBSS/20 mM HEPES/0.005% P-104 assay buffer, adjusted the volume of the suspension to achieve a cell concentration of 2.5×10^6 cells/mL. 2× Calcium 4 dye (20 μL/well) were added and the mixture were centrifuged briefly ( 10 s) and stopped when it reached 1000 rpm. The plates were allowed to equilibrate before compounds and CXCL12 were added to the plates. The raw data were analyzed using Abase. The percent (%) effect at each concentration of compound was calculated by Abase and was based on and relative to the amount of calcium produced in the positive and negative control wells contained within each assay plate. The concentrations and % effect values for tested compounds were plotted by Abase and the concentration of compound required for 50% effect (IC50) was determined with a four-parameter logistic dose response equation. FIGS. 3 and 4 summarize the results of Compounds A78 and A83 in the calcium mobilization assay.

The structures appear in SMILES notation.

Chain of CXCR4 (P61073 whole entry): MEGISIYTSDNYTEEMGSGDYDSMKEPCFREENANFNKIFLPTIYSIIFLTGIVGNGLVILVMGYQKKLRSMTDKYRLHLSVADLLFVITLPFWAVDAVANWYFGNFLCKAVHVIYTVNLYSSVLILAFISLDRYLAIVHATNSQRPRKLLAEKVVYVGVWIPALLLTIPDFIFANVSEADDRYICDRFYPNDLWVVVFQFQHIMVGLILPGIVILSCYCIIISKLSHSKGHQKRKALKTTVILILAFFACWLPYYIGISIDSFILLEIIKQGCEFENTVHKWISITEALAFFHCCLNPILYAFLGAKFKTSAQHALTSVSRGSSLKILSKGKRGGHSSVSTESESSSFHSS

Take `Cc1cccnc1[C@@H]1CCCN1Cc1nc2cccc(N3CCN(C)CC3)n2c1CO` [Compound C39, (S)-(5-(4-methylpiperazin-1-yl)-2-((2-(3-methylpyridin-2-yl)pyrrolidin-1-yl)methyl)imidazo[1,2-a]pyridin-3-yl)methanol]: the half-maximal inhibitory concentration (IC50) is 0.1 nM.

With `Cc1nc(CN(C)c2c(S(C)(=O)=O)ccc3cccnc23)cc(N2CCN(C)CC2)n1` [Compound D51], the half-maximal inhibitory concentration (IC50) was found to be 2090 nM.

Consider `Cc1nc(CN(C)[C@H]2CCOc3cccnc32)cc(N2CCN(C)CC2)n1` [Compound A91], for which the IC50 came to 0.032 nM.

Turning to `COc1cccnc1[C@H](C)N(C)Cc1cc(N2CCN(C)CC2)nc(C)n1` [Compound A92], the half-maximal inhibitory concentration (IC50) stood at 118 nM.

Take `Cc1nc(CN(CCCC(N)=O)c2cccc3cccnc23)cc(N2CCN(C)CC2)n1` [Compound D31, 4-(((2-methyl-6-(4-methylpiperazin-1-yl)pyrimidin-4-yl)methyl)(quinolin-8-yl)amino)butanamide]: the IC50 was 1.25 nM.

Consider `Cc1nc(CN(C)c2cc(CO)cc3cccnc23)cc(N2CCN(C)CC2)n1` [Compound D55, (8-(methyl((2-methyl-6-(4-methylpiperazin-1-yl)pyrimidin-4-yl)methyl)amino)quinolin-6-yl)methanol], for which the IC50 came to 39 nM.

As for `Cc1nc(CN(C)[C@@H](C)c2ccccn2)c(CO)c(N2CCN(C)[C@@H](C)C2)n1` [Compound A88], the IC50 stood at 0.3 nM.

`COc1nc(CN(C)c2cccc3cccnc23)cc(N2CCN(C)CC2)n1` [Compound D13]: the IC50 amounted to 2.9 nM.

`CCN(Cc1cc(N2CCN(C)CC2)nc(C)n1)[C@@H](C)c1ccccn1` [Compound A80]: the half-inhibitory concentration (IC50) is 0.18 nM.

For the compound `Cc1nc(CN(C)c2cc(S(C)(=O)=O)cc3cccnc23)cc(N2CCN(C)CC2)n1` [Compound D47], the IC50 came to 13 nM.

Consider `C[C@@H](c1ccccn1)N(C)Cc1nc2cccc(N3CCN4CCC[C@H]4C3)n2c1CO` [Compound A99], for which the IC50 is 0.39 nM.

With `CSc1nc(CN(C)c2cccc3cccnc23)cc(N2CCN(C)CC2)n1` [Compound D12], the IC50 amounted to 0.61 nM.

`Cc1nc(CN(C)c2cccc3cccnc23)cc(N2CCN(CCO)CC2)n1` [Compound D5]: the IC50 was found to be 2.1 nM.

With `Cc1nc(CN(C)c2cccc3cccnc23)c(CO)c(N2CCN(C)CC2)n1` [Compound D37], the IC50 amounted to 0.95 nM.

Turning to `CCc1nc(CN(C)c2cccc3cccnc23)cc(N2CCN(C)CC2)n1` [Compound D9], the IC50 was 0.59 nM.

In the case of `Cc1nc(CN(C)c2ccc(F)c3cccnc23)cc(N2CCN(C)CC2)n1` [Compound D19], the IC50 is 0.4 nM.

For `Cc1nc(CN(C)c2nccc3cccnc23)cc(N2CCN(C)CC2)n1` [Compound D21, N-methyl-N-((2-methyl-6-(4-methylpiperazin-1-yl)pyrimidin-4-yl)methyl)-1,7-naphthyridin-8-amine], the IC50 is 1580 nM.

Consider `Cc1nc(CN2CCC[C@H]2c2ncccc2C)cc(N2CCCN(C)CC2)n1` [Compound C36], for which the IC50 amounted to 0.5 nM.

With `Cc1nc(CN(C)c2ccc(C(F)(F)F)c3cccnc23)cc(N2CCN(C)CC2)n1` [Compound D40], the half-inhibitory concentration (IC50) came to 2850 nM.

Consider `C[C@@H](c1ccccn1)N(C)Cc1cc(N2CCN3CCC[C@@H]3C2)nc(CO)n1` [Compound A82], for which the concentration for half-maximal inhibition (IC50) worked out at 2.5 nM.

Turning to `Cc1nc(CN(C)[C@@H](C)c2ccccn2)c(CO)c(N2CCN3CCC[C@@H]3C2)n1` [Compound A86], the half-maximal inhibitory concentration (IC50) was 0.13 nM.

As to `Cc1nc(CN(C)c2cccc3cccnc23)cc(N2CCN(C3CC3)CC2)n1` [Compound D8], the half-maximal inhibitory concentration (IC50) came to 1.4 nM.

Take `Cc1nc(CN(C)c2cc(Br)cc3cccnc23)cc(N2CCN(C)CC2)n1` [Compound D45]: the half-inhibitory concentration (IC50) stood at 3 nM.

For the compound `Cc1nc(CN(C)c2c(NS(C)(=O)=O)ccc3cccnc23)cc(N2CCN(C)CC2)n1` [Compound D59], the IC50 turned out to be 450 nM.

For `Cc1nc(CN(C)c2ncnc3cccnc23)cc(N2CCN(C)CC2)n1` [Compound D24], the IC50 was found to be 12400 nM.

As to `Cc1cc(N(C)Cc2cc(N3CCN(C)CC3)nc(C)n2)c2ncccc2c1` [Compound D15], the half-inhibitory concentration (IC50) was found to be 0.4 nM.

As to `C[C@@H](c1ccccn1)N(C)Cc1cn2c(N3CCN(C)CC3)cccc2n1` [Compound A95, (S)-N-methyl-N-((5-(4-methylpiperazin-1-yl)imidazo[1,2-a]pyridin-2-yl)methyl)-1-(pyridin-2-yl)ethan-1-amine], the half-inhibitory concentration (IC50) came out at 0.13 nM.

In the case of `Cc1nc(CN(C)[C@@H](C)c2ccccn2)c(CO)c(N2CCN3CCC[C@H]3C2)n1` [Compound A87], the IC50 is 0.18 nM.

For `Cc1nc(CN(C)c2cc(F)cc3cccnc23)cc(N2CCN(C)CC2)n1` [Compound D18], the half-inhibitory concentration (IC50) came to 0.79 nM.

As for `Cc1nc(CN(C)c2cncc3cccnc23)cc(N2CCN(C)CC2)n1` [Compound D22, N-methyl-N-((2-methyl-6-(4-methylpiperazin-1-yl)pyrimidin-4-yl)methyl)-1,6-naphthyridin-8-amine], the IC50 is 965 nM.

On to `CN1CCN(c2cc(CN(C)c3cccc4cccnc34)nc(N(C)C)n2)CC1` [Compound D11], for which the IC50 was 1700 nM.

As for `CN1CCN(c2cc(CN(C)c3cccc4cccnc34)nc(C3CC3)n2)CC1` [Compound D10], the IC50 was found to be 2.9 nM.

As for `Cc1cccnc1[C@@H]1CCCN1Cc1cn2c(N3CCN(C)CC3)cccc2n1` [Compound C38, (S)-5-(4-methylpiperazin-1-yl)-2-((2-(3-methylpyridin-2-yl)pyrrolidin-1-yl)methyl)imidazo11,2-alpyridine], the IC50 was determined as 0.2 nM.

As for `CN1CCN(c2cccc3nc(CN(C)c4cccc5cccnc45)c(CO)n23)CC1` [Compound D39], the IC50 is 0.088 nM.

On to `Cc1nc(CN(C)c2cc(C(F)(F)F)cc3cccnc23)cc(N2CCN(C)CC2)n1` [Compound D44], for which the IC50 was 104 nM.

In the case of `Cc1nc(CN(C)[C@@H](C)c2ccccn2)c(CO)c(N2CCN(C)CC2)n1` [Compound A85, (S)-(2-methyl-4-((methyl(1-(pyridin-2-yl)ethyl)amino)methyl)-6-(4-methylpiperazin-1-yl)pyrimidin-5-yl)methanol], the IC50 was 0.99 nM.

Take `Cc1nc(CN(C)c2cc(C#N)cc3cccnc23)cc(N2CCN(C)CC2)n1` [Compound D46]: the IC50 came out at 53 nM.

Regarding `C[C@@H](c1ccccn1)N(C)Cc1cn2c(N3CCN4CCC[C@@H]4C3)cccc2n1` [Compound A98], the IC50 is 0.15 nM.

As to `C[C@@H](c1ccccn1)N(C)Cc1nc2cccc(N3CCN4CCC[C@@H]4C3)n2c1CO` [Compound A100], the concentration for half-maximal inhibition (IC50) was found to be 0.29 nM.

For `Cc1nc(CN(C)[C@@H](C)c2ccccn2)cc(N2CCN3CCC[C@H]3C2)n1` [Compound A79], the half-inhibitory concentration (IC50) is 0.22 nM.

Turning to `C[C@@H](c1ccccn1)N(C)Cc1cn2c(N3CCN4CCC[C@H]4C3)cccc2n1` [Compound A97], the IC50 is 0.25 nM.

As for `Cc1nc(CN2CCC[C@H]2c2ncccc2C)c(F)c(N2CCN(C)CC2)n1` [Compound C33], the IC50 amounted to 1.1 nM.

Regarding `CN1CCN(c2cccc3nc(CN(C)c4cccc5cccnc45)cn23)CC1` [Compound D38], the IC50 came to 0.18 nM.

On to `Cc1nc(CN(CCCCNC(=O)OC(C)(C)C)c2cccc3cccnc23)cc(N2CCN(C)CC2)n1` [Compound D27], for which the IC50 turned out to be 1.7 nM.

Turning to `Cc1nc(CN(C)c2cccc3cccnc23)cc(N2CCC(N(C)C)C2)n1` (stereo not drawn) [Compound D7], the half-inhibitory concentration (IC50) was 0.75 nM.
